Reference: patent US20250144067A1, “PERSONALIZED STARVATION THERAPY FOR CANCER” (Faeth Therapeutics, Inc., priority 2021, published 2025)
Where a name gives a salt, the structure may show the parent alone.

Columns and labels:
[1] = test system: NCI-H292 lung cancer cells; experiment: FDA drug screening, complete media vs cholesterol-free media without statin (TABLE 1); format: cell-based, human
[2] = test system: NCI-H292 lung cancer cells; experiment: FDA drug screening, complete media vs cholesterol-free media with simvastatin (TABLE 2); format: cell-based, human; settings: for Cholesterol-free media + simvastatin (0.04 μM) / Complete Media: NCI-H292 cells
[3] = Complete minus Cholesterol-free, greater than 0 enhanced anti-cancer activity, about 0 neutral, below 0 antagonist
[4] = NCI-H292 cells, FDA drug library screen, cholesterol-free media without statin
[5] = NCI-H292 cells, FDA drug library screen, complete media
[6] = cholesterol-free media with simvastatin 0.04 μM, cell growth value in FDA drug screen
[7] = complete media, cell growth value in FDA drug screen
[8] = complete media minus cholesterol-free media + simvastatin, >0 enhanced anti-cancer activity, about 0 neutral, <0 antagonist
[9] = Complete minus Cholesterol-free, >0 enhanced anti-cancer activity, about 0 neutral, <0 antagonist
[10] = NCI-H292 cells, cholesterol-free media without statin, FDA drug library screen
[11] = NCI-H292 cells, complete media, FDA drug library screen
[12] = FDA drug library screen, cholesterol-free media with simvastatin 0.04 μM
[13] = FDA drug library screen, complete media
[14] = complete media vs cholesterol-free media + simvastatin (0.04 μM), >0 enhanced anti-cancer activity, about 0 neutral, <0 antagonist
[15] = Complete minus Cholesterol-free, greater than 0 enhanced anti-cancer activity, about 0 neutral, below 0 antagonists
[16] = NCI-H292 cells in cholesterol-free media without statin
[17] = NCI-H292 cells in complete media
[18] = cholesterol-free media with simvastatin 0.04 μM, FDA drug library screen (TABLE 2)
[19] = complete media minus cholesterol-free media + simvastatin (0.04 μM), >0 enhanced anti-cancer activity, about 0 neutral, <0 antagonist
[20] = Complete minus Cholesterol-free, […]
[21] = complete media, FDA drug library screen (TABLE 2)
[22] = drug in cholesterol-free media with simvastatin 0.04 μM
[23] = NCI-H292 cells, cholesterol-free media without statin
[24] = complete vs cholesterol-free media, >0 enhanced anti-cancer activity, about 0 neutral, <0 antagonist
[25] = complete media vs cholesterol-free media + simvastatin (0.04 μM), […]

CCCCC1=NC2(CCCC2)C(=O)N1Cc1ccc(-c2ccccc2-c2nnn[nH]2)cc1 [Irbesartan]
Difference [1, 3]: −0.08 | Cholesterol-free [1, 4]: 0.8711 | Complete [1, 5]: 0.7887 | Cholesterol-free media + simvastatin (0.04 μM) [2, 6]: 0.9096 | Complete Media [2, 7]: 0.9697 | Difference [2, 8]: 0.06

O=C1NS(=O)(=O)c2ccccc21 [Saccharin]
Difference [1, 9]: 0.01 | Cholesterol-free [1, 10]: 0.9292 | Complete [1, 11]: 0.9415 | Cholesterol-free media + simvastatin (0.04 μM) [2, 12]: 0.8779 | Complete Media [2, 13]: 0.7765 | Difference [2, 14]: −0.10

CC1=C(CC(=O)O)c2cc(F)ccc2/C1=C\c1ccc([S+](C)[O-])cc1 (stereo not shown) [Sulindac]
Difference [1, 15]: −0.48 | Cholesterol-free [1, 16]: 1.336 | Complete [1, 17]: 0.8519 | Cholesterol-free media + simvastatin (0.04 μM) [2, 18]: 1.193 | Difference [2, 19]: −0.02

Varenicline (Tartrate)
Difference [1, 20]: −0.52 | Cholesterol-free [1, 16]: 1.334 | Complete [1, 17]: 0.8157 | Cholesterol-free media + simvastatin (0.04 μM) [2, 18]: 1.729 | Complete Media [2, 21]: 1.705 | Difference ([2]; complete media minus cholesterol-free media + simvastatin (0.04 μM), […]): −0.02

CCCCN1CCCCC1C(=O)Nc1c(C)cccc1C (stereo not shown) [Bupivacaine (hydrochloride)]
Difference [1, 3]: −0.15 | Cholesterol-free [1, 4]: 1.158 | Complete [1, 5]: 1.01 | Cholesterol-free media + simvastatin (0.04 μM) [2, 22]: 1.059 | Complete Media ([2]; drug in complete media): 0.8922 | Difference [2, 14]: −0.17

CC(C)=CCOc1ccc(/C=C/C(=O)c2ccc(OCC=C(C)C)cc2OCC(=O)O)cc1 [Sofalcone]
Difference [1, 3]: −0.07 | Cholesterol-free [1, 4]: 0.9203 | Complete [1, 5]: 0.8453 | Cholesterol-free media + simvastatin (0.04 μM) [2, 18]: 0.8486 | Complete Media [2, 21]: 0.7952 | Difference [2, 19]: −0.05

COc1cc(OC)c(C(=O)CCCN2CCCC2)c(OC)c1 [Buflomedil (hydrochloride)]
Difference [1, 9]: −0.02 | Cholesterol-free [1, 10]: 0.6014 | Complete [1, 11]: 0.5837 | Cholesterol-free media + simvastatin (0.04 μM) [2, 12]: 0.7629 | Complete Media [2, 13]: 1.555 | Difference [2, 8]: 0.79

CC(C(=O)O)c1ccc(C(=O)c2cccs2)cc1 (stereo not shown) [Suprofen]
Difference [1, 9]: −0.28 | Cholesterol-free [1, 23]: 1.108 | Complete ([1]; NCI-H292 cells, complete media): 0.8283 | Cholesterol-free media + simvastatin (0.04 μM) [2, 6]: 0.9436 | Complete Media [2, 7]: 0.9637 | Difference [2, 8]: 0.02

CCC(=O)NCC[C@@H]1CCc2ccc3c(c21)CCO3 [Ramelteon]
Difference [1, 3]: −0.10 | Cholesterol-free [1, 4]: 0.9442 | Complete [1, 5]: 0.8409 | Cholesterol-free media + simvastatin (0.04 μM) [2, 12]: 1.166 | Complete Media [2, 13]: 1.318 | Difference [2, 8]: 0.15

COC(=O)Nc1nc2cc(C(=O)c3ccc(F)cc3)ccc2[nH]1 [Flubendazole]
Cholesterol-free [1, 10]: 0.549 | Complete [1, 11]: 1.107 | Difference [1, 24]: 0.56 | Cholesterol-free media + simvastatin (0.04 μM) [2, 18]: 1.122 | Complete Media [2, 21]: 1.079 | Difference [2, 19]: −0.04

CCCc1nn(C)c2c(=O)[nH]c(-c3cc(S(=O)(=O)N4CCN(CCO)CC4)ccc3OCC)nc12 [Lodenafil]
Difference [1, 9]: −0.27 | Cholesterol-free [1, 23]: 0.8421 | Complete ([1]; NCI-H292 cells, complete media): 0.5699 | Cholesterol-free media + simvastatin (0.04 μM) [2, 6]: 0.819 | Complete Media [2, 7]: 0.8488 | Difference [2, 8]: 0.03

COC(=O)N[C@@H](C)CNc1nccc(-c2cn(C(C)C)nc2-c2cc(Cl)cc(NS(C)(=O)=O)c2F)n1 [Encorafenib]
Difference [1, 9]: −0.19 | Cholesterol-free [1, 23]: 0.5021 | Complete ([1]; NCI-H292 cells, complete media): 0.3116 | Cholesterol-free media + simvastatin (0.04 μM) [2, 18]: 0.6063 | Complete Media [2, 21]: 0.5501 | Difference [2, 19]: −0.06

Osimertinib mesylate
Difference [1, 20]: −0.14 | Cholesterol-free [1, 4]: 0.3436 | Complete [1, 5]: 0.1992 | Cholesterol-free media + simvastatin (0.04 μM) [2, 12]: 0.3874 | Complete Media [2, 13]: 0.2672 | Difference [2, 25]: −0.12

CN1C(=O)OC(C)(C)C1=O [Trimethadione]
Difference [1, 9]: −0.23 | Cholesterol-free [1, 23]: 1.085 | Complete ([1]; NCI-H292 cells, complete media): 0.857 | Cholesterol-free media + simvastatin (0.04 μM) [2, 6]: 1.017 | Complete Media [2, 7]: 1.08 | Difference [2, 8]: 0.06

C[C@@H](O)[C@H]1C(=O)N2C(C(=O)O)=C(S[C@@H]3CN[C@H](C(=O)N(C)C)C3)[C@H](C)[C@H]12 [Meropenem (trihydrate)]
Cholesterol-free [1, 10]: 1.169 | Complete [1, 11]: 1.522 | Difference [1, 24]: 0.35 | Cholesterol-free media + simvastatin (0.04 μM) [2, 18]: 1.099 | Complete Media [2, 21]: 1.05 | Difference [2, 19]: −0.05

CN1C(=O)COc2c(C(=O)NC3CN4CCC3CC4)cc(Cl)cc21 (stereo not shown) [Azasetron (hydrochloride)]
Difference [1, 9]: −0.07 | Cholesterol-free [1, 10]: 0.8277 | Complete [1, 11]: 0.7612 | Cholesterol-free media + simvastatin (0.04 μM) [2, 6]: 0.9264 | Complete Media [2, 7]: 0.9552 | Difference [2, 8]: 0.03

CN1CCN(c2c(F)cc3c(=O)c(C(=O)O)cn4c3c2SCC4)CC1 [Rufloxacin hydrochloride]
Difference [1, 9]: −0.28 | Cholesterol-free [1, 23]: 1.291 | Complete ([1]; NCI-H292 cells, complete media): 1.016 | Cholesterol-free media + simvastatin (0.04 μM) [2, 12]: 0.949 | Complete Media [2, 13]: 1.098 | Difference [2, 8]: 0.15

CC1=NS(=O)(=O)c2cc(Cl)ccc2N1 [Diazoxide]
Cholesterol-free [1, 23]: 1.261 | Complete ([1]; NCI-H292 cells, complete media): 0.9038 | Difference ([1]; complete vs cholesterol-free media, greater than 0 enhanced anti-cancer activity, about 0 neutral, below 0 antagonists): −0.36 | Cholesterol-free media + simvastatin (0.04 μM) [2, 6]: 0.9722 | Complete Media [2, 7]: 1.066 | Difference [2, 8]: 0.09

Cn1c(=O)cc(N2CCC[C@@H](N)C2)n(Cc2ccccc2C#N)c1=O.O=C(O)c1ccccc1 [Alogliptin (Benzoate)]
Difference [1, 3]: −0.08 | Cholesterol-free [1, 4]: 0.8854 | Complete [1, 5]: 0.8074 | Cholesterol-free media + simvastatin (0.04 μM) [2, 12]: 1.087 | Complete Media [2, 13]: 0.9402 | Difference [2, 14]: −0.15

CC[C@H]1OC(=O)[C@H](C)[C@@H](O[C@H]2C[C@@](C)(OC)[C@@H](O)[C@H](C)O2)[C@H](C)[C@@H](O[C@@H]2O[C@H](C)C[C@H](N(C)C)[C@H]2O)[C@](C)(O)C[C@@H](C)[C@@H]2N[C@@H](COCCOC)O[C@H]([C@H]2C)[C@]1(C)O [Dirithromycin]
Cholesterol-free [1, 10]: 0.918 | Complete [1, 11]: 0.9938 | Difference [1, 24]: 0.08 | Cholesterol-free media + simvastatin (0.04 μM) [2, 12]: 1.565 | Complete Media [2, 13]: 1.493 | Difference [2, 14]: −0.07

Imatinib (Mesylate)
Cholesterol-free [1, 10]: 0.5677 | Complete [1, 11]: 1.017 | Difference [1, 24]: 0.45 | Cholesterol-free media + simvastatin (0.04 μM) [2, 12]: 1.089 | Complete Media [2, 13]: 0.9411 | Difference [2, 14]: −0.15

COc1ccc(-c2nc3ccc(C4=NNC(=O)CC4C)cc3[nH]2)cc1 (stereo not shown) [Pimobendan]
Difference [1, 3]: −0.11 | Cholesterol-free [1, 4]: 1.104 | Complete [1, 5]: 0.9932 | Cholesterol-free media + simvastatin (0.04 μM) [2, 18]: 1.535 | Complete Media [2, 21]: 1.535 | Difference [2, 19]: 0.00

CCN(CC)C(=O)c1ccc(O)c(OC)c1 [Etamivan]
Difference [1, 15]: −0.50 | Cholesterol-free [1, 16]: 1.483 | Complete [1, 17]: 0.9848 | Cholesterol-free media + simvastatin (0.04 μM) ([2]; FDA library drug in cholesterol-free media with simvastatin 0.04 μM): 1.227 | Complete Media ([2]; FDA library drug in complete media): 0.9141 | Difference [2, 14]: −0.31

CC(/C=C/C=C(\C)C(=O)O[C@@H]1O[C@H](CO[C@@H]2O[C@H](CO)[C@@H](O)[C@H](O)[C@H]2O)[C@@H](O)[C@H](O)[C@H]1O)=C\C=C\C=C(C)\C=C\C=C(/C)C(=O)O[C@@H]1O[C@H](CO[C@@H]2O[C@H](CO)[C@@H](O)[C@H](O)[C@H]2O)[C@@H](O)[C@H](O)[C@H]1O [Crocin]
Difference [1, 3]: −0.11 | Cholesterol-free [1, 4]: 1.099 | Complete [1, 5]: 0.9914 | Cholesterol-free media + simvastatin (0.04 μM) [2, 22]: 1.135 | Complete Media ([2]; drug in complete media): 0.9252 | Difference [2, 14]: −0.21

Lanreotide (acetate)
Difference [1, 20]: −0.24 | Cholesterol-free [1, 23]: 1.287 | Complete ([1]; NCI-H292 cells, complete media): 1.045 | Cholesterol-free media + simvastatin (0.04 μM) [2, 22]: 1.388 | Complete Media ([2]; drug in complete media): 1.218 | Difference [2, 25]: −0.17

CC(=O)c1c(C)c2cnc(Nc3ccc(N4CCNCC4)cn3)nc2n(C2CCCC2)c1=O [Palbociclib (hydrochloride)]
Difference [1, 9]: −0.26 | Cholesterol-free [1, 23]: 1.289 | Complete ([1]; NCI-H292 cells, complete media): 1.028 | Cholesterol-free media + simvastatin (0.04 μM) [2, 22]: 1.037 | Complete Media ([2]; drug in complete media): 0.8185 | Difference [2, 14]: −0.22

OC(CNCC(O)C1CCc2cc(F)ccc2O1)C1CCc2cc(F)ccc2O1 (stereo not shown) [Nebivolol (hydrochloride)]
Cholesterol-free [1, 10]: 0.567 | Difference [1, 24]: 0.61 | Cholesterol-free media + simvastatin (0.04 μM) [2, 18]: 0.9013 | Complete Media [2, 21]: 0.8774 | Difference [2, 19]: −0.02

CCOC(=O)OC(C)OC(=O)[C@@H]1N2C(=O)[C@@H](NC(=O)[C@H](N)c3ccccc3)[C@H]2SC1(C)C (stereo partly shown) [Bacampicillin (hydrochloride)]
Difference [1, 3]: −0.18 | Cholesterol-free [1, 4]: 1.212 | Complete [1, 5]: 1.028 | Cholesterol-free media + simvastatin (0.04 μM) [2, 12]: 1.049 | Complete Media [2, 13]: 0.956 | Difference [2, 14]: −0.09
